Assay results as given in paper PMC10424179, “Disrupting Kaposi’s Sarcoma-Associated Herpesvirus (KSHV) Latent Replication with a Small Molecule Inhibitor” (Journal of Medicinal Chemistry, 2023).
Like-named read-outs stand apart in the source and are kept apart here.

What was measured:
Kinetic solubility = format: physicochemical; conditions: PBS with 1% DMSO; 1% DMSO in PBS, pH 7.4
Description: (§1) The next step was an in vitro ADMET profiling of the best seven compounds so far: 9, 11, 14, 19, 20, 21, and 27. The compounds were tested for their kinetic solubility (1% DMSO in PBS, pH 7.4), lipophilicity (chromatographic Log D7.4 value), cellular permeability (using Caco-2 cells), and metabolic stability (using mouse and human liver S9 fractions) (see Table 3).
The desired compounds were sequentially diluted in DMSO in a 96-well plate. 1.5 µL of each well were transferred into another 96-well plate and mixed with 148.5 µL of PBS. Plates were shaken for 5 min at 600 rpm at room temperature (r.t.), and the absorbance at 620 nm was measured. Absorbance values were normalized by blank subtraction and plotted using GraphPad Prism 8.4.2 (GraphPad Software, San Diego, CA, USA). Solubility (S) was determined based on the First X value of AUC function using a threshold of 0.005. […]

[1] = Metabolic stability in human liver S9 fraction; format: in vitro ADME; conditions: human liver S9, 1 μM compound
Description: as §1, with “3). […]” for “3).”
1.7 Metabolic Stability in Liver S9 Fractions
For the evaluation of combined phase I and phase II metabolic stability, the compound (1 μM) was incubated with 1 mg/mL pooled mouse liver S9 fraction (Xenotech, Kansas City, USA) or human liver S9 fraction (Corning, USA), 2 mM NADPH, 1 mM UDPGA, 10 mM MgCl 2, 5 mM GSH and 0.1 mM PAPS at 37 °C for 240 min. The metabolic stability of testosterone, verapamil and ketoconazole were determined in parallel to confirm the enzymatic activity of mouse S9 fractions, for human S9 testosterone, diclofenac and propranolol were used. The incubation was stopped after defined time points by precipitation of aliquots of S9 enzymes with 2 volumes of cold acetonitrile containing internal standard (150 nM diphenhydramine). Samples were stored on ice until the end of the incubation and precipitated protein was removed by centrifugation (15 min, 4 °C, 4,000 g). Concentration of the remaining test compound at the different time points was analyzed by HPLC-MS/MS (TSQ Quantum Access MAX, Thermo Fisher, Dreieich, Germany) and used to determine half -life (t1/2). Values are means of three

[2] = tested on: LANA-mediated replication of TR-containing plasmid pGTR4:73 in HEK293 cells; test: Cell-based replication assay (Southern blot); conditions: Homo sapiens
Description: Figure 3 (A) Illustration of the replication assay. […] (C) Bar graph of the intensity of the pGTR4:73 band after digestion with MfeI and DpnI on the Southern blot shown in panel B at different concentrations for compound 20. Values are means of two replicates.
For the replication assay (Figure 3A), plasmids containing four copies of the terminal repeat of the viral genome and a LANA expression cassette are transfected into HEK293 cells. […] The cells that can express LANA will now amplify the plasmids with the help of LANA and maintain them over several days of cell growth. Where LANA is not expressed, only the transfected plasmids remain and are slowly thinned out by cell growth. After transfection, cells are treated with the compounds or DMSO and allowed to grow for three days. Then, the plasmid DNA is isolated from the cell. The DNA is digested in two separate batches. First, to linearize them (MfeI) and second, with an enzyme (DpnI) that only digests DNA that has a specific methylation pattern derived from the bacteria, in which these plasmids had been amplified. […] One batch contains both enzymes, and only the replicated linearized DNA remains there. The second batch (control) contains only the linearizing enzyme. […] The DNA is separated on a gel by electrophoresis and transferred to a membrane for immobilization (Southern blot). The DNA can then be visualized on this membrane using an enzyme-labeled probe, since the enzyme can generate chemiluminescence with a specific substrate. This assay is designed to specifically probe the LANA-mediated replication of plasmid DNA indicating on-target cellular activity. We performed the assay in a concentration range between 15.625 and 62.5 μM. For compound 20, we observed the strongest inhibitory effect (Figure 3B,C).
This assay is based on protocols described previously and was modified as described in the following. 4 8 x 10^5 HEK 293 cells were plated per well in a 6-well plate. […]

COc1ccc(-c2cc(C)c(-n3cc(-c4ccc(C(=O)O)cc4)nn3)cn2)c(Cl)c1 [Compound 20]
solubility kinetic at 5 min (Kinetic solubility): > 200 µM
microsomal CLint at 1 µM ([1]; read-out: MetStab Human Liver S9 Clint): < 5.8 µL/min/mg
half-life at 1 µM ([1]; read-out: MetStab Human Liver S9 t1/2): > 2 h
inhibition at 62.5 µM ([2]; 72 h, HEK293 cells, 62.5 μM, three days of treatment): 67%
IC50 ([2]; 72 h, HEK293 cells, three days of treatment, estimated from Southern blot, read-out: IC50 value (southern blot)): 33.2 ± 3.6 µM
IC50 ([2]; Fig S5B, HEK293 replication assay, read-out: x0 of logistic fit, sigmoidal plot of southern blot (converted)): 33.2 µM
